Reference: patent US20240116985A1, “STAPLED PEPTIDES AND METHODS THEREOF” (priority 2020, published 2024)
Read-outs that look alike come from different tables or passages of the source.

Columns and labels:
[1] = target: T1, beta-catenin/TCF4 engagement (Homo sapiens, UniProt P35222); assay: Nano-BRET target engagement assay (B-cat-Halo & TCF4-Luc in HEK293 cells); format: cell-based; details: read-out: NanoBRET Abs IC50
T1 construct: expressed in transfected cells; host or cells: HEK293
T1 sequence (P35222 1-781): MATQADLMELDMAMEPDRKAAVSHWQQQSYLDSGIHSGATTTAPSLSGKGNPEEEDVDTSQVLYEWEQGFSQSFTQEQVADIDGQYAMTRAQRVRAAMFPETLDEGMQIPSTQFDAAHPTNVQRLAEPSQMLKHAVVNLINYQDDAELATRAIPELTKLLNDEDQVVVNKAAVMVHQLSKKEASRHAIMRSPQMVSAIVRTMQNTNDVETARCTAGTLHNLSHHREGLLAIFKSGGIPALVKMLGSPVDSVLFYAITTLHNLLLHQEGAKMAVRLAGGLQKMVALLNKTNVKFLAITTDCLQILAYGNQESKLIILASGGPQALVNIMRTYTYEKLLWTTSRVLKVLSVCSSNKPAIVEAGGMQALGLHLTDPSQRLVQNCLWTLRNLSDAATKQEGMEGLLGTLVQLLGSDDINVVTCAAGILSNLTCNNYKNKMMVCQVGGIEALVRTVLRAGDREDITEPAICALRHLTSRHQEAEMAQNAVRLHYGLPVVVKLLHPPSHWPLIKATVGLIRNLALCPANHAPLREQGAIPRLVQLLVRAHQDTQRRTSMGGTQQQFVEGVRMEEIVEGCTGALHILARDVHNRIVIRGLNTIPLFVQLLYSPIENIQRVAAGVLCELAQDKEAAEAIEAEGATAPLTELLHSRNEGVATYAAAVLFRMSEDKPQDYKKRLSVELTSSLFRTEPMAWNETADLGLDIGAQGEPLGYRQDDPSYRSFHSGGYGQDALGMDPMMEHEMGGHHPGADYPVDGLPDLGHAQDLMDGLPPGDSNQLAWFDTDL

[2] = target: T2, full-length beta-Catenin (Uniprot ID P35222) (Homo sapiens, UniProt P35222); assay: Fluorescence polarization IC50 (beta-catenin / 5FAM-TCF4 10-53 competition); format: binding; details: fluorescence polarization
T2 construct: 10 nM full-length beta-Catenin (Uniprot ID P35222)
T2 sequence (P35222 1-781): T1 sequence (P35222 1-781)

Row | IC50 [1] | IC50 ([2]; read-out: beta-Catenin FP IC50) | IC50 ([1]; absolute IC50) | IC50 ([2]; beta-catenin, read-out: FP EC50) | SMILES
1 | > 20000 nM | 88 nM |  |  | CC(=O)N1CCC[C@]12CC=CCCCC1(CCCC=CCCCOC(=O)N3CC[C@@](C(=O)N[C@@H](Cc4ccccc4)C(=O)N[C@@H](Cc4csc5ccccc45)C(=O)N[C@@H](CCCCN)C(N)=O)(C3)NC(=O)[C@H](CC(N)=O)NC(=O)[C@H](Cc3ccccc3)NC(=O)[C@H](C)NC(=O)[C@H](CCCCNC(C)C)NC(=O)[C@H](CCC(N)=O)NC(=O)[C@H](CC(=O)O)NC1=O)NC(=O)[C@H](CC1CCCCC1)NC(=O)[C@H](CC(N)=O)NC2=O (stereo partly drawn) [I-2110, Ac-PL3-Asn-Cha-B5-Asp-Gln-iPrLys-Ala-Phe-Asn-PyrS2-Phe-BztA-Lys-NH2]
2 |  | 67 nM | > 20000 nM |  | CC(=O)N1CC2CC1C(=O)N[C@@H](CC(=O)O)C(=O)N[C@@H](CC(C)(C)C)C(=O)NC1(CCCCCCCCOC(=O)N3CC[C@@](C(=O)N[C@@H](Cc4ccsc4)C(=O)N[C@@H](Cc4csc5ccccc45)C(=O)N[C@@H](CCC(N)=O)C(N)=O)(C3)NC(=O)[C@H](CC(C)C)NC(=O)[C@H](Cc3ccccc3)NC(=O)[C@H](C)NC(=O)[C@H](C)NC(=O)[C@H](CN(CC(=O)O)CC(F)(F)F)NC(=O)[C@H](CC(=O)O)NC1=O)CCCCCCCC(=O)O2 (stereo partly drawn) [I-2265, Ac-HypEs5-Asp-Npg-B5-Asp-TfeGA-Ala-Ala-Phe-Leu-PyrS2-3Thi-BztA-Gln-NH2]
3 |  | 5 nM | > 20000 nM |  | CNCCCCN(C)C(=O)CC[C@@H]1NC(=O)[C@H](Cc2cccc(C(=O)O)c2)NC(=O)[C@H](CC(=O)O)NC(=O)C2(CCCC=CCCCOC(=O)N3CC[C@@](C(=O)N[C@@H](Cc4ccsc4)C(=O)N[C@@H](Cc4csc5ccccc45)C(=O)N[C@@H](C)C(N)=O)(C3)NC(=O)[C@H](C(C)C)NC(=O)[C@H](Cc3ccccc3)NC(=O)[C@H](C)NC1=O)CCCC=CC[C@]1(CCCN1C(C)=O)C(=O)N[C@@H](CC(=O)O)C(=O)N[C@@H](CC(C)(C)C)C(=O)N2 (stereo partly drawn) [I-2301, Ac-PL3-Asp-Npg-B5-Asp-3COOHF-[Me2diaminobutane]GlnR-Ala-Phe-Val-PyrS2-3Thi-BztA-Ala-NH2]
4 |  | 17 nM | 13700 nM |  | CC(=O)N1CCC[C@]12CC=CCCCC1(CCCC=CCCCOC(=O)N3CC[C@@](C(=O)N[C@@H](Cc4ccsc4)C(=O)N[C@@H](Cc4ccc5ccccc5c4)C(=O)N[C@@H](CCC(N)=O)C(N)=O)(C3)NC(=O)[C@H](CC(C)C)NC(=O)[C@H](Cc3ccccc3)NC(=O)[C@H](C)NC(=O)[C@H](C)NC(=O)[C@H](Cc3cccc(C(=O)O)c3)NC(=O)[C@H](CC(=O)O)NC1=O)NC(=O)[C@H](CC(C)(C)C)NC(=O)[C@H](CC(=O)O)NC2=O (stereo partly drawn) [I-2309, Ac-PL3-Asp-Npg-B5-Asp-3COOHF-Ala-Ala-Phe-Leu-PyrS2-3Thi-2NapA-Gln-NH2]
5 |  | 165 nM | > 20000 nM |  | CC(=O)N1CCC[C@]12CC=CCCCC1(CCCC=CCCCOC(=O)N3CC[C@@](C(=O)N[C@@H](Cc4ccsc4)C(=O)N[C@@H](Cc4csc5ccccc45)C(=O)N[C@@H](CCCCN)C(N)=O)(C3)NC(=O)[C@H](CC(N)=O)NC(=O)[C@H](Cc3ccccc3)NC(=O)[C@H](C)NC(=O)C(C)(C)NC(=O)[C@H]([C@@H](C)O)NC(=O)[C@H](CC(N)=O)NC1=O)NC(=O)[C@H](CC(C)(C)C)NC(=O)[C@H](CC(=O)O)NC2=O (stereo partly drawn) [I-2477, Ac-PL3-Asp-Npg-B5-Asn-Thr-Aib-Ala-Phe-Asn-PyrS2-3Thi-BztA-Lys-NH2]
6 | 11700 nM | 5 nM |  |  | CC(=O)N1CCC[C@]12CC=CCCCC1(CCCC=CCCCOC(=O)N3CC[C@@](C(=O)N[C@@H](Cc4ccsc4)C(=O)N[C@@H](Cc4csc5ccccc45)C(=O)N[C@@H](CCC(N)=O)C(N)=O)(C3)NC(=O)[C@H](CC(C)C)NC(=O)[C@H](Cc3ccccc3)NC(=O)[C@H](C)NC(=O)[C@H](C)NC(=O)[C@H](CCn3cc(CC(=O)O)nn3)NC(=O)[C@H](CC(=O)O)NC1=O)NC(=O)[C@H](CC(C)(C)C)NC(=O)[C@H](CC(=O)O)NC2=O (stereo partly drawn) [I-2078, Ac-PL3-Asp-Npg-B5-Asp-[CH2CO2H]TriAzDab-Ala-Ala-Phe-Leu-PyrS2-3Thi-BztA-Gln-NH2]
7 | 7100 nM | 9 nM |  |  | CC(=O)N1CCC[C@]12CC=CCCCC1(CCCC=CCCCOC(=O)N3CC[C@@](C(=O)N[C@@H](Cc4ccsc4)C(=O)N[C@@H](Cc4csc5ccccc45)C(=O)N[C@@H](CCC(N)=O)C(N)=O)(C3)NC(=O)[C@H](CCC(=O)N3CCN(CC(F)(F)F)CC3)NC(=O)[C@H](Cc3ccccc3)NC(=O)[C@H](C)NC(=O)[C@H](C)NC(=O)[C@H](CN(CC(=O)O)CC(F)(F)F)NC(=O)[C@H](CC(=O)O)NC1=O)NC(=O)[C@H](CC(C)(C)C)NC(=O)[C@H](CC(=O)O)NC2=O (stereo partly drawn) [I-1935, Ac-PL3-Asp-Npg-B5-Asp-TfeGA-Ala-Ala-Phe-[TfePpz]GlnR-PyrS2-3Thi-BztA-Gln-NH2]
8 |  | 27 nM | 5700 nM |  | CC(=O)N1CCC[C@]12CC=CCCCC1(CCCC=CCCCOC(=O)N3CC[C@@](C(=O)N[C@@H](Cc4ccsc4)C(=O)N[C@@H](Cc4csc5ccccc45)C(=O)N[C@@H](CCC(N)=O)C(N)=O)(C3)NC(=O)[C@H](CC(C)C)NC(=O)[C@H](Cc3ccccc3)NC(=O)[C@H](C)NC(=O)[C@H](C)NC(=O)[C@H](Cc3cc(C(=O)O)cc(C(F)(F)F)c3)NC(=O)[C@H](CC(=O)O)NC1=O)NC(=O)[C@H](CC(C)(C)C)NC(=O)[C@H](CC(=O)O)NC2=O (stereo partly drawn) [I-2208, Ac-PL3-Asp-Npg-B5-Asp-5F3Me3COOHF-Ala-Ala-Phe-Leu-PyrS2-3Thi-BztA-Gln-NH2]
9 |  | 52 nM | 20800 nM |  | CC(=O)N1CCC[C@]12CC=CCCCC1(CCCC=CCCCOC(=O)N3CC[C@@](C(=O)N[C@@H](Cc4ccccc4C(F)(F)F)C(=O)N[C@H](C(=O)N[C@@H](C)C(N)=O)[C@@H](C)c4csc5ccccc45)(C3)NC(=O)[C@H](CC(C)C)NC(=O)[C@H](Cc3ccccc3)NC(=O)[C@H](C)NC(=O)[C@H](CCC(N)=O)NC(=O)[C@H](Cc3cccc(C(=O)O)c3)NC(=O)[C@H](CC(=O)O)NC1=O)NC(=O)[C@H](CC(C)(C)C)NC(=O)[C@H](CC(=O)O)NC2=O (stereo partly drawn) [I-2457, Ac-PL3-Asp-Npg-B5-Asp-3COOHF-Gln-Ala-Phe-Leu-PyrS2-2F3MeF-SbMeBztA-Ala-NH2]
10 | 3500 nM | 56 nM |  |  | CC(=O)N1CCC[C@]12CC=CCCCC1(CCCC=CCCCOC(=O)N3CC[C@@](C(=O)N[C@@H](Cc4ccccc4C(F)(F)F)C(=O)N[C@@H](Cc4csc5ccccc45)C(=O)N[C@@H](CCS(C)(=O)=O)C(N)=O)(C3)NC(=O)[C@H](CC(C)C)NC(=O)[C@H](Cc3ccccc3)NC(=O)[C@H](C)NC(=O)[C@H](C)NC(=O)[C@H](Cc3cccc(C(=O)O)c3)NC(=O)[C@H](CC(=O)O)NC1=O)NC(=O)[C@H](CC(C)(C)C)NC(=O)[C@H](CC(=O)O)NC2=O (stereo partly drawn) [I-2063, Ac-PL3-Asp-Npg-B5-Asp-3COOHF-Ala-Ala-Phe-Leu-PyrS2-2F3MeF-BztA-Met2O-NH2]
11 |  | 79 nM | > 20000 nM | 79 nM | CCCC[C@@H]1NC(=O)[C@H](CC(=O)O)NC(=O)[C@]2(CC=CCCCC3(CCCC=CCCCOC(=O)N4CC[C@@](C(=O)N[C@@H](Cc5ccsc5)C(=O)N[C@@H](Cc5csc6ccccc56)C(=O)N[C@@H](CC(C)C)C(N)=O)(C4)NC(=O)[C@H](CC(C)C)NC(=O)[C@H](Cc4ccccc4)NC(=O)[C@H](C)NC(=O)[C@H](C)NC(=O)[C@H](CC(=O)O)NC(=O)[C@H](CC(=O)O)NC3=O)NC1=O)CCCN2C(C)=O (stereo partly drawn) [I-1412, Ac-PL3-Asp-nLeu-B5-Asp-Asp-Ala-Ala-Phe-Leu-PyrS2-3Thi-BztA-Leu-NH2]
12 | 7700 nM | 28 nM |  |  | CC(=O)N1CCC[C@]12CC=CCCCC1(CCCC=CCCCOC(=O)N3CC[C@@](C(=O)N[C@@H](Cc4ccccc4Cl)C(=O)N[C@@H](Cc4csc5ccccc45)C(=O)N[C@@H](CO)C(N)=O)(C3)NC(=O)[C@H](CC(C)C)NC(=O)[C@H](Cc3ccccc3)NC(=O)[C@H](C)NC(=O)[C@H](CO)NC(=O)[C@H](Cc3cccc(C(=O)O)c3)NC(=O)[C@H](CC(=O)O)NC1=O)NC(=O)[C@H](CC(C)(C)C)NC(=O)[C@H](CC(=O)O)NC2=O (stereo partly drawn) [I-1902, Ac-PL3-Asp-Npg-B5-Asp-3COOHF-Ser-Ala-Phe-Leu-PyrS2-2C1F-BztA-Ser-NH2]
13 |  | 21 nM | 2700 nM |  | CC(=O)N1CCC[C@]12CC=CCCCC1(CCCC=CCCCOC(=O)N3CC[C@@](C(=O)N[C@@H](Cc4ccccc4C(F)(F)F)C(=O)N[C@@H](Cc4ccc(Cl)c(Cl)c4)C(=O)N[C@@H](C)C(N)=O)(C3)NC(=O)[C@H](CC(C)C)NC(=O)[C@H](Cc3ccccc3)NC(=O)[C@H](C)NC(=O)[C@H](CCC(N)=O)NC(=O)[C@H](Cc3cccc(C(=O)O)c3)NC(=O)[C@H](CC(=O)O)NC1=O)NC(=O)[C@H](CC(C)(C)C)NC(=O)[C@H](CC(=O)O)NC2=O (stereo partly drawn) [I-2219, Ac-PL3-Asp-Npg-B5-Asp-3COOHF-Gln-Ala-Phe-Leu-PyrS2-2F3MeF-34C1F-Ala-NH2]
